Results: patent publication US20240247026A1, “SALTS AND CRYSTALLINE FORMS OF (3E) 3-[O-[(PHOSPHONOOXY)METHYL]OXIME]-PREGN-4-ENE-3,20-DIONE AND RELATED USES” (NeuroTrauma Sciences LLC, priority 2021, published 2024)
“Also recorded” adds a separate entry of the source.

Assays:
[1] = Primary salt screen: XRPD re-analysis after drying at 40° C. and after storage at 40° C./75% RH; format: physicochemical; settings: for Remained pattern after 40° C.: dried at 40° C. for ca. two days; for Remained pattern after 40° C./78% RH: stored for ca. 24 h
Method: Salt crystallization screening was carried out as follows. Ca. […] The experiments were temperature cycled between ambient and 40° C. in 4 hour cycles for ca. 72 h. […] The solids were then isolated via centrifuge filter and analyzed by XRPD. Selected salts were dried at 40° ° C. for ca. two days and re-analyzed by XRPD. The salts were also characterized by TG/DSC and ^1H NMR.

[2] = Thermodynamic solubility studies in pH buffers; settings: shaken at ambient ca. 24 h
Method: Ca. 6 mg of the salt was weighed into a 2 mL vial and 50 μL aliquots of pH 7.4 PBS was added until dissolution was obtained. […] The preparations were analyzed by XRPD, PLM, TG/DSC, DSC, DVS, FTIR, ^1H and ^31P NMR and HPLC purity. One week stability testing was carried out, salt disproportionation and hydration studies and thermodynamic solubility.
Salt disproportionation and hydration studies were carried out as follows: Ca. 30 mg of each salt was suspended in 400 μL of the solvent systems shown in and shaken at ambient for ca. 24 h. Thermodynamic solubility studies were carried out as follows: Ca. 30 mg of each salt was suspended in 400 μL of the solvent systems shown in and shaken at ambient for ca. 24 h.

[3] = Dynamic vapour sorption (DVS); format: physicochemical
Method: Dynamic Vapour Sorption (DVS). Approximately 10-20 mg of sample was placed into a mesh vapour sorption balance pan and loaded into a DVS Advantage dynamic vapour sorption balance by Surface Measurement Systems. The sample was subjected to a ramping profile from 40-90% relative humidity (RH) at 10% increments, maintaining the sample at each step until a stable weight had been achieved (dm/dt 0.004%, minimum step length 30 minutes, maximum step length 500 minutes) at 25° C. After completion of the sorption cycle, the sample was dried using the same procedure to 0% RH and then a second sorption cycle back to 40% RH. Two cycles were performed. The weight change during the sorption/desorption cycles were plotted, allowing for the hygroscopic nature of the sample to be determined. XRPD analysis was then carried out on any solid retained.

[4] = One week (7-day) stability testing, HPLC purity and XRPD form; settings: for Loss in purity, one week stability: open vial
Method: After one week the solids were analyzed by XRPD for physical stability and HPLC for purity.
Seven day stability testing was carried out for Form III at 40° C./75% RH and ambient in open vials. 80° C. was carried out in an open 2 mL vial within a closed 20 mL vial.
The crystalline Bis-Sodium Pattern 3 material underwent 7-day stability tests at 40° C./75% RH (open vial); at ambient temperature, light and humidity (open vial) and 80° C. (sealed vial), with post-stability storage XRPD and HPLC analysis. The solubility of the bis-sodium pattern 3 salt was assessed.

[5] = Salt disproportionation and hydration studies; format: physicochemical; settings: ambient, ca. 24 h; for Hydration studies, outcome: 3 water activities; for Disproportionation experiment, outcome: water
[6] = 80° C., listed as N-(hydroxyethyl)pyrrolidine Pattern 2
[7] = listed as N-(hydroxyethyl)pyrrolidine Pattern 2

Compound: CCNC[C@H](O)[C@@H](O)[C@H](O)[C@H](O)CO [N-ethyl glucamine]
- Remained pattern after 40° C. [1]: Yes
- Remained pattern after 40° C./78% RH [1]: No. Mixture

Compound: NCCO [Ethanolamine]
- Remained pattern after 40° C. [1]: Yes

Compound: CC(=O)[C@H]1CC[C@H]2[C@@H]3CCC4=CC(=NOCOP(=O)(O)O)CC[C@]4(C)[C@H]3CC[C@]12C.OCCN1CCCC1.OCCN1CCCC1 [Form V]
- Remained pattern after 40° C. [1]: Yes
- Remained pattern after 40° C./78% RH [1]: Yes
- Solubility ([2]; pH 7.4): > 45 mg/mL
- Solubility ([2]; pH 8): > 39 mg/mL
- Solubility ([2]; pH 8.5): > 39 mg/mL
- Post DVS XRPD form [3]: remain unchanged
- DVS hygroscopic nature ([3]; 25° C.): hygroscopic
- DVS total uptake at 90% RH ([3]; 25° C.): 19.0%
- DVS total uptake at 90% RH as equivalents of water ([3]; 25° C.): 7.3 equivalents of water
- DVS uptake between 40% RH and 90% RH ([3]; 25° C.): 17.8%
- DVS uptake between 40% RH and 90% RH ([3]; 25° C., listed as N-(hydroxyethyl)pyrrolidine Pattern 2): 17.8% uptake between 40 &
- Loss in purity, one week stability ([4]; 40° C./75% RH): No loss in purity
- Loss in purity, one week stability ([4]; 40° C./75% RH, listed as N-(hydroxyethyl)pyrrolidine Pattern 2): No loss in purity at ambient
- Decrease in purity, one week stability ([4]; 80° C.): 0.9 % Area
- XRPD form after one week stability ([4]; 80° C.): some minor changes
- Decrease in purity, one week stability [4, 6]: & 40° C./75% RH. 0.9% Area
- XRPD form after one week stability [4, 6]: minor changes at 80 °C
- XRPD form after one week stability ([4]; all conditions tested): Form V remained; also recorded: remain unchanged
- XRPD form after one week stability ([4]; all conditions tested, listed as N-(hydroxyethyl)pyrrolidine Pattern 2): Remained Pattern 2, some
- Loss in purity, one week stability ([4]; ambient light and temperature): No loss in purity
- Loss in purity, one week stability ([4]; ambient light and temperature, listed as N-(hydroxyethyl)pyrrolidine Pattern 2): No loss in purity at ambient
- Hydration studies, outcome [5]: Solutions were obtained; also recorded: no solids after 24 h
- Hydration studies, outcome [5, 7]: Solutions obtained
- Disproportionation experiment, outcome [5]: Solutions were obtained; also recorded: no solids after 24 h
- Disproportionation experiment, outcome [5, 7]: Solutions obtained

Compound: CC(=O)[C@H]1CC[C@H]2[C@@H]3CCC4=CC(=NOCOP(=O)([O-])[O-])CC[C@]4(C)[C@H]3CC[C@]12C.[Na+].[Na+] [Sodium Pattern 3]
- Solubility ([2]; pH 7.4): <12 mg/mL at pH 7.4
- Decrease in purity, one week stability ([4]; 80° C.): Large drop in purity at 80 °C
- XRPD form after one week stability ([4]; 80° C.): 40° C./75% RH, Pattern 5
- Decrease in purity, one week stability ([4]; 80° C., listed as sodium salt Pattern 3): large drop in purity
- XRPD form after one week stability ([4]; all conditions tested): form conversion

Compound: CC(=O)C1CCC2C3CCC4=CC(=NOCOP(=O)(O)O)CCC4(C)C3CCC12C.NC(CO)(CO)CO (stereo not shown) [Form III]
- XRPD form after one week stability ([4]; 80° C.): Form IV

Compound: [K+] [Potassium]
- Remained pattern after 40° C. [1]: Yes
- Remained pattern after 40° C./78% RH [1]: No - Pattern 5
- Remained pattern after 40° C./78% RH ([1]; listed as potassium Pattern 1): Pattern 5
